# From ChEMBL document CHEMBL1201862, “PubChem BioAssay data set” (2004)
#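 Tested at 5 concentrations; 48 h exposure; 96-well plates; endpoints linearly interpolated, else capped at highest concentration. GI50 = concentration required for 50% inhibition of growth.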 Calls of active or inactive are those of the source. Rule as the data show it: active = GI50 up to about 1.1 µM and inactive = higher.
# Columns and labels:
# Assay in all cases: NCI tumour cell line growth inhibition, 48 h
# NCI/ADR-RES = test system: NCI/ADR-RES
# NCI-H226 = test system: NCI-H226
# 786-0 = test system: 786-0
# A498 = test system: A498
# NCI-H23 = test system: NCI-H23
# BT-549 = test system: BT-549
# A549 = test system: A549
# SF-268 = test system: SF-268
# HL-60 = test system: HL-60
# NCI-H460 = test system: NCI-H460
# CAKI-1 = test system: CAKI-1
# HT-29 = test system: HT-29
# MDA-MB-435 = test system: MDA-MB-435
# M14 = test system: M14
# SNB-75 = test system: SNB-75
# MCF7 = test system: MCF7
# SF-539 = test system: SF-539
# HOP-62 = test system: HOP-62
SMILES,GI50 (NCI/ADR-RES),GI50 (NCI-H226),GI50 (786-0),GI50 (A498),GI50 (NCI-H23),GI50 (BT-549),GI50 (A549),GI50 (SF-268),GI50 (HL-60),GI50 (NCI-H460),GI50 (CAKI-1),GI50 (HT-29),GI50 (MDA-MB-435),GI50 (M14),GI50 (SNB-75),GI50 (MCF7),GI50 (SF-539),GI50 (HOP-62)
N=c1oc2ccccc2cc1C(=O)Nc1nccs1,19.7 µM (inactive),19.7 µM (inactive),2.37 µM (inactive),45.7 µM (inactive),35.8 µM (inactive),39.5 µM (inactive),44.6 µM (inactive),47.3 µM (inactive),0.91 µM (active),26.7 µM (inactive),13.4 µM (inactive),46.6 µM (inactive),25.8 µM (inactive),19 µM (inactive),35.6 µM (inactive),5.7 µM (inactive),5.75 µM (inactive),18.8 µM (inactive)
COc1ccc2nc(-c3ccccc3)cc(OCC(=O)O)c2c1,> 100 µM (inactive),> 100 µM (inactive),> 100 µM (inactive),> 100 µM (inactive),> 100 µM (inactive),> 100 µM (inactive),> 100 µM (inactive),> 100 µM (inactive),> 100 µM (inactive),> 100 µM (inactive),> 100 µM (inactive),> 100 µM (inactive),> 100 µM (inactive),> 100 µM (inactive),> 100 µM (inactive),> 100 µM (inactive),> 100 µM (inactive),> 100 µM (inactive)
COc1ccc(-c2cc(=O)c3c(OC)c(OC)c(OC)c(OC)c3o2)cc1 [TANGERETIN],23.7 µM (inactive),64.7 µM (inactive),53.6 µM (inactive),22.8 µM (inactive),43.3 µM (inactive),58.9 µM (inactive),51.6 µM (inactive),> 100 µM (inactive),34.4 µM (inactive),56.2 µM (inactive),53.6 µM (inactive),35.2 µM (inactive),50.5 µM (inactive),76.9 µM (inactive),46.8 µM (inactive),> 100 µM (inactive),> 100 µM (inactive),82.6 µM (inactive)
Cc1cc(=O)oc2cc(O)c(CN(C)CC(=O)O)cc12,> 100 µM (inactive),> 100 µM (inactive),> 100 µM (inactive),> 100 µM (inactive),> 100 µM (inactive),> 100 µM (inactive),> 100 µM (inactive),> 100 µM (inactive),> 100 µM (inactive),> 100 µM (inactive),> 100 µM (inactive),> 100 µM (inactive),> 100 µM (inactive),> 100 µM (inactive),> 100 µM (inactive),> 100 µM (inactive),> 100 µM (inactive),
O=C1CCCCC1CN1CCCCC1 (stereo not given),> 100 µM (inactive),> 100 µM (inactive),> 100 µM (inactive),> 100 µM (inactive),> 100 µM (inactive),> 100 µM (inactive),> 100 µM (inactive),> 100 µM (inactive),> 100 µM (inactive),> 100 µM (inactive),> 100 µM (inactive),> 100 µM (inactive),> 100 µM (inactive),> 100 µM (inactive),> 100 µM (inactive),> 100 µM (inactive),> 100 µM (inactive),> 100 µM (inactive)
COc1cc(C2c3cc4c(cc3C(O)C3CCC(=O)N23)OCO4)cc(OC)c1OC (stereo not given),53 µM (inactive),37.5 µM (inactive),52.5 µM (inactive),42.6 µM (inactive),53 µM (inactive),14.9 µM (inactive),39.3 µM (inactive),49.9 µM (inactive),17.1 µM (inactive),39.4 µM (inactive),28.2 µM (inactive),29.9 µM (inactive),3.54 µM (inactive),38.9 µM (inactive),26.7 µM (inactive),16.5 µM (inactive),> 10 µM (inactive),39.2 µM (inactive)
CC(CN(C)C)C(O)(c1ccccc1)c1ccccc1 (stereo not given),> 100 µM (inactive),> 100 µM (inactive),> 100 µM (inactive),> 100 µM (inactive),> 100 µM (inactive),> 100 µM (inactive),> 100 µM (inactive),> 100 µM (inactive),> 100 µM (inactive),> 100 µM (inactive),> 100 µM (inactive),> 100 µM (inactive),> 100 µM (inactive),> 100 µM (inactive),> 100 µM (inactive),> 100 µM (inactive),> 100 µM (inactive),> 100 µM (inactive)
C=C(C)C(O)C(O)c1c(OC)ccc2ccc(=O)oc12 (stereo not given),> 100 µM (inactive),> 100 µM (inactive),> 100 µM (inactive),> 100 µM (inactive),> 100 µM (inactive),> 100 µM (inactive),> 100 µM (inactive),> 100 µM (inactive),> 100 µM (inactive),> 100 µM (inactive),> 100 µM (inactive),> 100 µM (inactive),> 100 µM (inactive),> 100 µM (inactive),> 100 µM (inactive),> 100 µM (inactive),> 100 µM (inactive),> 100 µM (inactive)
O=C1c2ccccc2C(=O)c2c(OCC3CO3)ccc(OCC3CO3)c21 (stereo not given),2.21 µM (inactive),12.4 µM (inactive),1.48 µM (inactive),17.9 µM (inactive),4.12 µM (inactive),6.28 µM (inactive),3.46 µM (inactive),0.346 µM (active),0.118 µM (active),1.99 µM (inactive),1.91 µM (inactive),4.84 µM (inactive),2.7 µM (inactive),1.3 µM (inactive),12.4 µM (inactive),0.195 µM (active),4.15 µM (inactive),1.95 µM (inactive)
Cc1nc(-[n+]2nc(-c3ccncc3)nn2-c2ccccc2)sc1C,84.5 µM (inactive),32.1 µM (inactive),19.1 µM (inactive),92.7 µM (inactive),57.9 µM (inactive),17.1 µM (inactive),30.3 µM (inactive),21.4 µM (inactive),57.5 µM (inactive),,19.1 µM (inactive),55.1 µM (inactive),23.4 µM (inactive),49.3 µM (inactive),42.9 µM (inactive),18.6 µM (inactive),8.53 µM (inactive),7.96 µM (inactive)
CC(=O)N(CN1C(=O)CCC1C(=O)O)c1ccccc1 (stereo not given),29.9 µM (inactive),> 52.7 µM (inactive),> 53.8 µM (inactive),> 59.7 µM (inactive),> 56.2 µM (inactive),> 100 µM (inactive),> 55.1 µM (inactive),> 52.4 µM (inactive),> 55.7 µM (inactive),> 100 µM (inactive),> 57.3 µM (inactive),> 55 µM (inactive),> 100 µM (inactive),> 54.5 µM (inactive),> 56.5 µM (inactive),> 56.8 µM (inactive),> 50.6 µM (inactive),> 55.6 µM (inactive)
CCCc1c(OC)c(=O)c2c(OC)cc(OC)c3c4c(OC)cc(OC)c5c(=O)c(OC)c(CCC)c(c1c23)c54,21.2 µM (inactive),16.2 µM (inactive),13.1 µM (inactive),19.1 µM (inactive),14.9 µM (inactive),15 µM (inactive),19.4 µM (inactive),16.1 µM (inactive),2.77 µM (inactive),13.7 µM (inactive),14.6 µM (inactive),11.4 µM (inactive),16 µM (inactive),16.9 µM (inactive),7.23 µM (inactive),17.1 µM (inactive),15.1 µM (inactive),18 µM (inactive)
O=C1N[C@@H](c2c[nH]c3ccc(Br)cc23)C(=O)N[C@H]1c1c[nH]c2ccc(Br)cc12,31.4 µM (inactive),10.8 µM (inactive),11.5 µM (inactive),5.24 µM (inactive),10.6 µM (inactive),13.6 µM (inactive),13.8 µM (inactive),8.15 µM (inactive),6.9 µM (inactive),5.73 µM (inactive),12.8 µM (inactive),7.5 µM (inactive),4.25 µM (inactive),9.12 µM (inactive),1.55 µM (inactive),12.6 µM (inactive),5.21 µM (inactive),12 µM (inactive)
O=C/C=C/c1ccco1,> 100 µM (inactive),> 100 µM (inactive),> 100 µM (inactive),> 100 µM (inactive),> 100 µM (inactive),> 100 µM (inactive),> 100 µM (inactive),> 100 µM (inactive),5.56 µM (inactive),,> 100 µM (inactive),> 100 µM (inactive),> 100 µM (inactive),> 100 µM (inactive),> 100 µM (inactive),> 100 µM (inactive),94.8 µM (inactive),> 100 µM (inactive)
Cc1nc(O)c(Cc2ccccc2O)c(-c2ccccc2)n1,> 100 µM (inactive),> 100 µM (inactive),> 100 µM (inactive),> 100 µM (inactive),> 100 µM (inactive),> 100 µM (inactive),> 100 µM (inactive),> 100 µM (inactive),> 100 µM (inactive),> 100 µM (inactive),> 100 µM (inactive),87.5 µM (inactive),> 100 µM (inactive),> 100 µM (inactive),22.4 µM (inactive),> 100 µM (inactive),> 100 µM (inactive),> 100 µM (inactive)
CCOC(=O)c1ccc(NC(NC(=O)CC)(C(F)(F)F)C(F)(F)F)cc1,> 100 µM (inactive),> 100 µM (inactive),> 100 µM (inactive),> 100 µM (inactive),> 100 µM (inactive),> 100 µM (inactive),> 100 µM (inactive),> 100 µM (inactive),> 100 µM (inactive),> 100 µM (inactive),> 100 µM (inactive),> 100 µM (inactive),> 100 µM (inactive),> 100 µM (inactive),> 100 µM (inactive),> 100 µM (inactive),> 100 µM (inactive),> 100 µM (inactive)
